Test results as given in patent US20140323476A1, “PEPTIDE DEFORMYLASE INHIBITORS” (priority 2011, published 2014).
Values after ≈ are worked out from the molar mass of the structure shown.

Legend:
[1] = tested on: Staphylococcus aureus WCUH29; assay: Antimicrobial activity assay (MIC); format: cell-based; details: median of all results obtained, panel run 6 times
Method: (§1) Whole-cell antimicrobial activity was determined by broth microdilution using the Clinical and Laboratory Standards Institute (CLSI, formerly NCCLS) recommended methodology (NCCLS Document M7-A6, “Methods for Dilution Susceptibility Tests for Bacteria that Grow Aerobically—Approved Standard Sixth Edition”, 2003). Compounds were tested in serial two-fold dilutions ranging from 64 to 0.06 μg/mL. A panel of 12 strains was evaluated in the assay. This panel consisted of the following laboratory strains: Staphylococcus aureus Oxford, Staphylococcus aureus WCUH29, Enterococcus faecalis I, Enterococcus faecalis 7, Haemophilus influenzae Q1, Haemophilus influenzae NEMC1, Moraxella catarrhalis 1502, Streptococcus pneumoniae 1629, Streptococcus pneumoniae N1387, Streptococcus pneumoniae Ery2, Escherichia coli 7623 (AcrABEFD+) and Escherichia coli 120 (AcrAB−). The minimum inhibitory concentration (MIC) was determined as the lowest concentration of compound that inhibited visible growth. A mirror reader was used to assist in determining the MIC endpoint.

[2] = tested on: Streptococcus pneumoniae Ery2; assay: Antimicrobial activity assay (MIC); format: cell-based; details: median of all results obtained, panel run 6 times
Method: as §1

Enterococcus faecalis I = assay: Antimicrobial activity assay (MIC); format: cell-based; details: median of all results obtained, panel run 6 times
Method: as §1

[3] = tested on: Escherichia coli 7623 (AcrABEFD+); assay: Antimicrobial activity assay (MIC); format: cell-based; details: median of all results obtained, panel run 6 times
Method: as §1

[4] = tested on: Streptococcus pneumoniae 1629; assay: Antimicrobial activity assay (MIC); format: cell-based; details: median of all results obtained, panel run 6 times
Method: as §1

[5] = tested on: Haemophilus influenzae Q1; assay: Antimicrobial activity assay (MIC); format: cell-based; details: median of all results obtained, panel run 6 times
Method: as §1

[6] = tested on: Streptococcus pneumoniae N1387; assay: Antimicrobial activity assay (MIC); format: cell-based; details: median of all results obtained, panel run 6 times
Method: as §1

[7] = tested on: Haemophilus influenzae NEMC1; assay: Antimicrobial activity assay (MIC); format: cell-based; details: median of all results obtained, panel run 6 times
Method: as §1

[8] = tested on: Moraxella catarrhalis 1502; assay: Antimicrobial activity assay (MIC); format: cell-based; details: median of all results obtained, panel run 6 times
Method: as §1

[9] = tested on: Staphylococcus aureus Oxford; assay: Antimicrobial activity assay (MIC); format: cell-based; details: median of all results obtained, panel run 6 times
Method: as §1

Enterococcus faecalis 7 = assay: Antimicrobial activity assay (MIC); format: cell-based; details: median of all results obtained, panel run 6 times
Method: as §1

[10] = tested on: Escherichia coli 120 (AcrAB−); assay: Antimicrobial activity assay (MIC); format: cell-based
Method: as §1

[11] = Adsorption of labile water versus relative humidity; format: physicochemical
[12] = Dissolution rate in water, turbidity and visual inspection; format: physicochemical
Method: [(2R)-2-(cyclopentyl methyl)-3-(2-{5-fluoro-6-[(9aS)-hexahydropyrazino[2,1-c][1,4]oxazin-8(1h)-yl]-2-methyl-4-pyrimidinyl}hydrazino)-3-oxopropyl]hydroxyformamide was triturated with a mortar and pestle. The resulting powder (20 g, 1.0 eq, basis) was charged to a 250 mL jacketed vessel. The vessel was equipped with an overhead stirrer which was set to 60 RPM. The jacket fluid was controlled to 23° C. A solution of purified water (125 mL) and methanesulphonic acid (4.0 g, 2.7 mL, 1.0 eq) was prepared. The aqueous methanesulphonic acid solution was added to the vessel containing [(2R)-2-(cyclopentyl methyl)-3-(2-{5-fluoro-6-[(9aS)-hexahydropyrazino[2,1-c][1,4]oxazin-8(1h)-yl]-2-methyl-4-pyrimidinyl}hydrazino)-3-oxopropyl]hydroxyformamide. The resulting suspension was stirred continuously and monitored by turbidity and visual inspection. After 1 day, the turbidity and pH readings stabilized.
[(2R)-2-(cyclopentyl methyl)-3-(2-{5-fluoro-6-[(9aS)-hexahydropyrazino[2,1-c][1,4]oxazin-8(1h)-yl]-2-methyl-4-pyrimidinyl}hydrazino)-3-oxopropyl]hydroxyformamide methanesulphonate was triturated with a mortar and pestle. The resulting powder (24 g, 1.0 eq) was charged to a similar 250 mL jacketed vessel. The vessel was equipped with an overhead stirrer which was set to 60 RPM. The jacket fluid was controlled to 23° C. Purified water (125 mL) was added to the vessel containing [(2R)-2-(cyclopentylmethyl)-3-(2-{5-fluoro-6-[(9aS)-hexahydropyrazino[2,1-c][1,4]oxazin-8(1h)-yl]-2-methyl-4-pyrimidinyl}hydrazino)-3-oxopropyl]hydroxyformamide methanesulphonate. The resulting suspension was stirred continuously and monitored by turbidity and visual inspection. A clear solution was observed visually and confirmed turbidimetrically at 3 minutes.

pH solubility curve = format: physicochemical; details: thermodynamic from solid
Source text: The pH solubility curve can be seen in Table 5 below.

[13] = Degradation rate on storage at forced conditions; format: physicochemical; details: forced conditions: 50° C., ambient humidity
[14] = Hydrolytic degradation rate of reconstituted lyophile; format: physicochemical; details: reconstituted lyophile at 5 mg/mL
panel of 12 strains = assay: Antimicrobial activity assay, broth microdilution, panel of 12 strains; format: cell-based; details: compared with the examples from WO 03/101442
Method: as §1

SMILES: Cc1nc(NNC(=O)[C@H](CC2CCCC2)CN(O)C=O)c(F)c(N2CCN3CCOC[C@@H]3C2)n1 [Example 24, [(2R)-2-(Cyclopentylmethyl)-3-(2-{5-fluoro-6-[(9aS)-hexahydropyrazino[2,1-c][1,4]oxazin-8(1H)-yl]-2-methyl-4-pyrimidinyl}hydrazino)-3-oxopropyl]hydroxyformamide]
- MIC [1]: 0.375 µg/mL (≈ 0.782 µM)
- MIC [2]: 0.375 µg/mL (≈ 0.782 µM)
- MIC (Enterococcus faecalis I): 48 µg/mL (≈ 100 µM)
- MIC [3]: 16 µg/mL (≈ 33.4 µM)
- MIC [4]: 0.75 µg/mL (≈ 1.56 µM)
- MIC [5]: 0.5 µg/mL (≈ 1.04 µM)
- MIC [6]: 0.5 µg/mL (≈ 1.04 µM)
- MIC [7]: 1 µg/mL (≈ 2.09 µM)
- MIC [8]: 0.375 µg/mL (≈ 0.782 µM)
- MIC [9]: 2 µg/mL (≈ 4.17 µM)
- MIC (Enterococcus faecalis 7): 32 µg/mL (≈ 66.7 µM)
- MIC [10]: 0.188 µg/mL (≈ 0.391 µM)

SMILES: CS(=O)(=O)O.Cc1nc(NNC(=O)[C@H](CC2CCCC2)CN(O)C=O)c(F)c(N2CCN3CCOC[C@@H]3C2)n1 [Example 11, [(2R)-2-(Cyclopentylmethyl)-3-(2-{5-fluoro-6-[(9aS)-hexahydropyrazino[2,1-c][1,4]oxazin-8(1H)-yl]-2-methyl-4-pyrimidinyl}hydrazino)-3-oxopropyl]hydroxyl formamide methanesulfonate polymorphic Form 2]
- labile water adsorbed reversibly ([11]; up to 95% relative humidity): up to 2 % (wt/wt)

SMILES: Cc1nc(NNC(=O)[C@H](CC2CCCC2)CN(O)C=O)c(F)c(N2CCN3CCOC[C@@H]3C2)n1 [Example 1, [(2R)-2-(Cyclopentylmethyl)-3-(2-{5-fluoro-6-[(9aS)-hexahydropyrazino[2,1-c][1,4]oxazin-8(1H)-yl]-2-methyl-4-pyrimidinyl}hydrazino)-3-oxopropyl]hydroxyformamide]
- time observed without complete dissolution ([12]; 20 g powder, 125 mL purified water with 1.0 eq methanesulphonic acid, 23° C., 60 RPM): over 7.1 days
- solubility (pH solubility curve; 0.003M methanesulphonic acid, pH 4.86, aqueous buffer): 1.93 mg/mL (≈ 4020 µM)
- solubility (pH solubility curve; 0.01M methanesulphonic acid, pH 4.33, aqueous buffer): 4.98 mg/mL (≈ 10400 µM)
- solubility (pH solubility curve; 0.03M methanesulphonic acid, pH 3.98, aqueous buffer): 13.9 mg/mL (≈ 29000 µM)
- solubility (pH solubility curve; 0.05M methanesulphonic acid, pH 3.76, aqueous buffer): 22 mg/mL (≈ 45900 µM)
- solubility (pH solubility curve; 0.1M methanesulphonic acid, pH 3.57, aqueous buffer): 41.7 mg/mL (≈ 87000 µM)
- solubility (pH solubility curve; 0.3M methanesulphonic acid, pH 3.34, aqueous buffer): 116 mg/mL (≈ 242000 µM)
- solubility (pH solubility curve; 0.5M methanesulphonic acid, pH 3.39, aqueous buffer): 193 mg/mL (≈ 402000 µM)
- solubility (pH solubility curve; 1M methanesulphonic acid, pH 3.42, aqueous buffer): 347 mg/mL (≈ 724000 µM)
- degradation rate ([13]; listed as free base): 1.7 %/month
- Degradation Rate % hydrolized/day ([14]; storage temperature 5° C., listed as Free base): 0.06 % hydrolized/day
- Degradation Rate % hydrolized/day ([14]; storage temperature 25° C., listed as Free base): 0.53 % hydrolized/day

SMILES: Cc1nc(NNC(=O)[C@H](CC2CCCC2)CN(O)C=O)c(F)c(N2CCN3CCOC[C@@H]3C2)n1 [Example 6]
- time to clear solution ([12]; 24 g powder, 125 mL purified water, 23° C., 60 RPM): 3 min
- dissolution and solubility compared to the free base ([12]; one equivalent of methanesulphonic acid and water, 160 mg/mL): faster dissolution and enhanced solubility
- relative humidity at which it deliquesces [11]: 70 % relative humidity
- labile water adsorbed reversibly ([11]; up to 70% relative humidity): up to 0.4 % (wt/wt)
- solubility (pH solubility curve; Purified Water, pH 3.2, equilibrium not reached): > 452 mg/mL
- degradation rate ([13]; listed as mesylate): 0.2 %/month
- Degradation Rate % hydrolized/day ([14]; storage temperature 5° C., listed as Mesylate): 0.01 % hydrolized/day
- Degradation Rate % hydrolized/day ([14]; storage temperature 25° C., listed as Mesylate): 0.11 % hydrolized/day

SMILES: Cc1nc(NNC(=O)[C@H](CC2CCCC2)CN(O)C=O)c(F)c(N2CCN3CCOC[C@@H]3C2)n1 [[(2R)-2-(Cyclopentylmethyl)-3-(2-{5-fluoro-6-[(9aS)-hexahydropyrazino[2,1-c][1,4]oxazin-8(1H)-yl]-2-methyl-4-pyrimidinyl}hydrazino)-3-oxopropyl]hydroxyformamide]
- in vitro antibacterial activity (MIC and/or MIC90) and/or in vivo efficacy (panel of 12 strains): greater in vitro antibacterial activity (MIC and/or MIC90) and/or better in vivo efficacy
